Values quoted from earlier work as cited in patent publication US11648240B2, “Pharmaceutical composition comprising famotidine, lidocaine and melatonin” (Cellix Bio Private Limited, priority 2021, dated 2023).

Columns and labels:
[1] = target: CYP1A2 (Homo sapiens, UniProt P05177); conditions: stated as believed, no test described
[2] = system: human immunodeficiency virus; conditions: in-vitro studies
[3] = system: sars-cov-2; conditions: in-vitro studies

Sequence of CYP1A2 (P05177 whole entry, species assumed): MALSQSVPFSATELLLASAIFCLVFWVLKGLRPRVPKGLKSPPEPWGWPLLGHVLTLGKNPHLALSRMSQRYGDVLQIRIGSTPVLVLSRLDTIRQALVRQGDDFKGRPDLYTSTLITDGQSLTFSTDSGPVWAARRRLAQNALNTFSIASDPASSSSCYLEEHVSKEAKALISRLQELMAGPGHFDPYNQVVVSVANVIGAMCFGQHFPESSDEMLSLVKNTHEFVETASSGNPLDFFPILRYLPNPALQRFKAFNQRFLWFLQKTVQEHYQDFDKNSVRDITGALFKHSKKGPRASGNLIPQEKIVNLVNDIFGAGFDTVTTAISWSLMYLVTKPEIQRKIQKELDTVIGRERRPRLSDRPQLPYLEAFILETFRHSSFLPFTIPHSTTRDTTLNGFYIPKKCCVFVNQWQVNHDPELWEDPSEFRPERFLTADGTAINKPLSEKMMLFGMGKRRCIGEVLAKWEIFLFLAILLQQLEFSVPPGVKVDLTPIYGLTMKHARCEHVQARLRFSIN

## NC(N)=Nc1nc(CSCCC(N)=NS(N)(=O)=O)cs1 [Famotidine]
[1]
  metabolism through Cytochrome P450 system (CYP1A2): 25-30%
[2]
  human immunodeficiency virus replication: inhibits
[3]
  sars-cov-2 replication: inhibits
